Reference: the NIST ThermoML archive (doi:10.1021/je060271a)
Numbers after ± are expanded uncertainties.

Details: 283.14 K, Liquid, Vibrating tube method

Measured: mass density

CCCCCCC(=O)OCC(COC(=O)CCCCCC)(COC(=O)CCCCCC)COC(=O)CCCCCC [pentaerythritol tetraheptanoate]
993.6 ± 1.2 kg/m3: 13471 kPa | 13504 kPa | 13721 kPa | 13738 kPa | 13759 kPa | 13776 kPa
992.7 ± 1.2 kg/m3: 11844 kPa | 11928 kPa | 11954 kPa | 12127 kPa | 12219 kPa | 12243 kPa | 12353 kPa
992.3 ± 1.2 kg/m3: 11266 kPa | 11318 kPa | 11394 kPa | 11422 kPa | 11446 kPa | 11470 kPa
992.5 ± 1.2 kg/m3: 11627 kPa | 11657 kPa | 11707 kPa | 11732 kPa | 11762 kPa | 11813 kPa | 11901 kPa | 11981 kPa
992.6 ± 1.2 kg/m3: 11788 kPa | 11870 kPa | 12013 kPa | 12040 kPa | 12067 kPa | 12190 kPa
991.3 ± 1.2 kg/m3: 9317.3 kPa | 9436.7 kPa | 9504.9 kPa | 9521.4 kPa | 9557.6 kPa | 9594.2 kPa | 9610.7 kPa | 9664.8 kPa
992.4 ± 1.2 kg/m3: 11370 kPa | 11499 kPa | 11524 kPa | 11548 kPa | 11573 kPa | 11602 kPa | 11682 kPa
991.5 ± 1.2 kg/m3: 9574.2 kPa | 9771.3 kPa | 9809.7 kPa | 9923.9 kPa | 9960.2 kPa | 10037 kPa | 10096 kPa
992.8 ± 1.2 kg/m3: 12099 kPa | 12161 kPa | 12264 kPa | 12288 kPa | 12308 kPa | 12333 kPa | 12506 kPa
993.3 ± 1.2 kg/m3: 12876 kPa | 13072 kPa | 13146 kPa | 13176 kPa | 13225 kPa | 13262 kPa | 13278 kPa | 13313 kPa | 13383 kPa
992.9 ± 1.2 kg/m3: 12373 kPa | 12398 kPa | 12418 kPa | 12464 kPa | 12527 kPa | 12553 kPa | 12622 kPa
991.1 ± 1.2 kg/m3: 9069.4 kPa | 9103.3 kPa | 9136.4 kPa | 9183.2 kPa | 9198.7 kPa | 9217 kPa | 9232.5 kPa | 9267.1 kPa | 9368.1 kPa | 9538.2 kPa
991.9 ± 1.2 kg/m3: 10445 kPa | 10485 kPa | 10529 kPa | 10549 kPa | 10615 kPa | 10640 kPa | 10661 kPa | 10682 kPa | 10706 kPa | 10748 kPa | 10816 kPa | 10842 kPa
991 ± 1.2 kg/m3: 8943.7 kPa | 8967.5 kPa | 8987.8 kPa | 9012.5 kPa | 9033.2 kPa | 9051.6 kPa | 9118.5 kPa | 9168 kPa
993.5 ± 1.2 kg/m3: 13418 kPa | 13451 kPa | 13541 kPa | 13558 kPa | 13578 kPa | 13595 kPa | 13612 kPa | 13632 kPa | 13648 kPa | 13666 kPa
992.1 ± 1.2 kg/m3: 10886 kPa | 10957 kPa | 11100 kPa | 11173 kPa
993.1 ± 1.2 kg/m3: 12643 kPa | 12760 kPa | 12782 kPa | 12805 kPa | 12854 kPa | 12899 kPa | 12926 kPa | 12948 kPa
992 ± 1.2 kg/m3: 10595 kPa | 10727 kPa | 10770 kPa | 10795 kPa | 10863 kPa | 10909 kPa | 10931 kPa | 10979 kPa | 11072 kPa
991.2 ± 1.2 kg/m3: 9088.3 kPa | 9152.5 kPa | 9248.5 kPa | 9282.6 kPa | 9298.5 kPa | 9333.1 kPa | 9348.8 kPa | 9382 kPa | 9401.3 kPa | 9417.4 kPa | 9468.9 kPa | 9485.1 kPa
991.4 ± 1.2 kg/m3: 9452.9 kPa | 9644.3 kPa | 9681.7 kPa | 9698.7 kPa | 9719.2 kPa | 9736.6 kPa | 9792.1 kPa | 9845.5 kPa | 9866.9 kPa | 9884.8 kPa
993.7 ± 1.2 kg/m3: 13687 kPa | 13704 kPa
993.2 ± 1.2 kg/m3: 12971 kPa | 12999 kPa | 13021 kPa | 13045 kPa | 13096 kPa | 13123 kPa | 13201 kPa
992.2 ± 1.2 kg/m3: 11005 kPa | 11028 kPa | 11050 kPa | 11122 kPa | 11145 kPa | 11197 kPa | 11221 kPa | 11244 kPa | 11294 kPa | 11342 kPa
991.7 ± 1.2 kg/m3: 9999.8 kPa | 10197 kPa | 10258 kPa | 10296 kPa | 10319 kPa | 10509 kPa
993 ± 1.2 kg/m3: 12439 kPa | 12485 kPa | 12574 kPa | 12596 kPa | 12665 kPa | 12687 kPa | 12713 kPa | 12734 kPa | 12827 kPa
991.6 ± 1.2 kg/m3: 9902.5 kPa | 9942.1 kPa | 9978.3 kPa | 10018 kPa | 10059 kPa | 10078 kPa | 10137 kPa | 10156 kPa | 10174 kPa | 10216 kPa | 10277 kPa
993.4 ± 1.2 kg/m3: 13243 kPa | 13294 kPa | 13329 kPa | 13348 kPa | 13365 kPa | 13399 kPa | 13435 kPa | 13488 kPa | 13524 kPa
991.8 ± 1.2 kg/m3: 10114 kPa | 10239 kPa | 10339 kPa | 10359 kPa | 10382 kPa | 10401 kPa | 10425 kPa | 10465 kPa | 10574 kPa
